“And” between values parts separate entries of the source, which are not always exact repeats. Equal entries are not always repeated. ± gives the expanded uncertainty stated by the source.
Columns and labels:
[1] = 101 kPa, Liquid; for viscosity: Concentric cylinders viscometry; for mass density: Vibrating tube method
[2] = refractive index (Na D-line) (dimensionless); conditions: 101.33 kPa, Liquid, Standard Abbe refractometry
[3] = xn = mol fraction of the nth substance listed; conditions: 101 kPa, Liquid, x2 = 0; for viscosity: Concentric cylinders viscometry; for mass density: Vibrating tube method
[4] = refractive index (Na D-line) (dimensionless); xn = mol fraction of the nth substance listed; conditions: 101 kPa, Liquid, Standard Abbe refractometry, x2 = 0

CC(O)CN (stereo not given) [1-amino-2-propanol]
Conditions	mass density, [1] [kg/m3]	refractive index, [2]	viscosity, [1]
288.15 K	964.544 ± 0.8	1.45 ± 0.0005	43.7 ± 1.4 mPa·s
293.15 K	960.598 ± 0.79	1.448 ± 0.0005	31.68 ± 1 mPa·s
298.15 K	956.618 ± 0.79	1.446 ± 0.0005	23.54 ± 0.75 mPa·s
303.15 K	952.612 ± 0.78	1.444 ± 0.0005	17.89 ± 0.57 mPa·s and 17.9 ± 0.57 mPa·s
308.15 K	948.577 ± 0.78	1.4419 ± 0.0005	13.88 ± 0.44 mPa·s
313.15 K	944.515 ± 0.77	1.4399 ± 0.0005	10.96 ± 0.35 mPa·s
318.15 K	940.423 ± 0.77	1.4378 ± 0.0005	8.798 ± 0.28 mPa·s
323.15 K	936.293 ± 0.76	1.4358 ± 0.0005	7.166 ± 0.23 mPa·s
328.15 K	932.13 ± 0.76	1.4337 ± 0.0005	5.915 ± 0.19 mPa·s
333.15 K	927.93 ± 0.75	1.4315 ± 0.0005	4.986 ± 0.16 mPa·s

CCCCO [butan-1-ol]
Conditions	mass density, [1] [kg/m3]	refractive index, [2]	viscosity, [1] [mPa·s]
288.15 K	813.353 ± 0.23	1.4013 ± 0.0004	3.367 ± 0.1
293.15 K	809.564 ± 0.23	1.3992 ± 0.0004	2.914 ± 0.089
298.15 K	805.752 ± 0.24	1.3972 ± 0.0004	2.539 ± 0.078
303.15 K	801.912 ± 0.24	1.3951 ± 0.0004	2.228 ± 0.068
308.15 K	798.039 ± 0.24	1.393 ± 0.0004	1.962 ± 0.06
313.15 K	794.13 ± 0.24	1.391 ± 0.0004	1.739 ± 0.054
318.15 K	790.18 ± 0.24	1.3888 ± 0.0004	1.547 ± 0.048
323.15 K	786.179 ± 0.24	1.3867 ± 0.0004	1.382 ± 0.043
328.15 K	782.125 ± 0.24	1.3846 ± 0.0004	1.239 ± 0.038
333.15 K	778.012 ± 0.24	1.3824 ± 0.0004	1.138 ± 0.035

CCCCO [butan-1-ol] + CC(O)CN
Conditions	mass density, [3] [kg/m3]	refractive index, [4]	viscosity, [3] [mPa·s]
288.15 K	813.353 ± 0.23	1.4013 ± 0.0004	3.367 ± 0.1
293.15 K	809.564 ± 0.23	1.3992 ± 0.0004	2.914 ± 0.089
298.15 K	805.752 ± 0.24	1.3972 ± 0.0004	2.539 ± 0.078
303.15 K	801.912 ± 0.24	1.3951 ± 0.0004	2.228 ± 0.068
308.15 K	798.039 ± 0.24	1.393 ± 0.0004	1.962 ± 0.06
313.15 K	794.13 ± 0.24	1.391 ± 0.0004	1.739 ± 0.054
318.15 K	790.18 ± 0.24	1.3888 ± 0.0004	1.547 ± 0.048
323.15 K	786.179 ± 0.24	1.3867 ± 0.0004	1.382 ± 0.043
328.15 K	782.125 ± 0.24	1.3846 ± 0.0004	1.239 ± 0.038
333.15 K	778.012 ± 0.24	1.3824 ± 0.0004	1.138 ± 0.035

CCC(C)O (stereo not given) [butan-2-ol]
Conditions	mass density, [1] [kg/m3]	refractive index, [2]	viscosity, [1] [mPa·s]
288.15 K	810.524 ± 0.23	1.3995 ± 0.0004	4.59 ± 0.14
293.15 K	806.487 ± 0.24	1.3974 ± 0.0004	3.738 ± 0.12
298.15 K	802.373 ± 0.24	1.3952 ± 0.0004	3.074 ± 0.094
303.15 K	798.174 ± 0.24	1.393 ± 0.0004	2.552 ± 0.078
308.15 K	793.881 ± 0.24	1.3907 ± 0.0004	2.144 ± 0.066
313.15 K	789.487 ± 0.24	1.3883 ± 0.0004	1.818 ± 0.056
318.15 K	784.988 ± 0.24	1.3859 ± 0.0004	1.558 ± 0.048
323.15 K	780.38 ± 0.24	1.3835 ± 0.0004	1.348 ± 0.042
328.15 K	775.656 ± 0.24	1.381 ± 0.0004	1.179 ± 0.037
333.15 K	770.82 ± 0.24	1.3784 ± 0.0004	1.054 ± 0.033

CCC(C)O (stereo not given) [butan-2-ol] + CC(O)CN
Conditions	mass density, [3] [kg/m3]	refractive index, [4]	viscosity, [3] [mPa·s]
288.15 K	810.524 ± 0.23	1.3995 ± 0.0004	4.59 ± 0.14
293.15 K	806.487 ± 0.24	1.3974 ± 0.0004	3.738 ± 0.12
298.15 K	802.373 ± 0.24	1.3952 ± 0.0004	3.074 ± 0.094
303.15 K	798.174 ± 0.24	1.393 ± 0.0004	2.552 ± 0.078
308.15 K	793.881 ± 0.24	1.3907 ± 0.0004	2.144 ± 0.066
313.15 K	789.487 ± 0.24	1.3883 ± 0.0004	1.818 ± 0.056
318.15 K	784.988 ± 0.24	1.3859 ± 0.0004	1.558 ± 0.048
323.15 K	780.38 ± 0.24	1.3835 ± 0.0004	1.348 ± 0.042
328.15 K	775.656 ± 0.24	1.381 ± 0.0004	1.179 ± 0.037
333.15 K	770.82 ± 0.24	1.3784 ± 0.0004	1.054 ± 0.033
